Assay results: patent US20140079775A1, “AGENTS TO TREAT/PREVENT AMOEBIASIS” (priority 2011, published 2014)
Where two headings read alike, the source gives them in different places.

Test system: E. histolytica mediated cytotoxicity on HT-29 cell layers
Assay type: cell-based, Entamoeba histolytica
Conditions: for protection of the cell layer (in words): physiologically relevant concentrations of individual HMO
Procedure: FIG. 2 HMO prevent E. histolytica mediated cytotoxicity in in vitro co-culture with enterocytes. Representative images of methylene blue stained HT-29 cell layers as such (A, left) or cocultured with HM-1 trophozoites in the absence (A, middle) or presence (A, right) of 10 mg/ml HMO. Dose response curve with different concentrations of HMO (B). The O.D 660 nm of methyleneblue cell layers was used as a measure for cytotoxicity. The cytoprotective effect of HMO was calculated as the percent ‘cell rescue’ compared to the untreated coculture (0%). Results are means SEM of 4 independent experiments. Cocultures were incubated with different glycans and cytotoxicity was determined as described above (C). […] HMO rescues cell layers when added to existing cocultures (D). HT-29 cells were cocultured with HM-1 and 20 mg/ml HMO was added at the indicated times of coculture. Cocultures were stopped and cytotoxicity was determined after 2 hrs. Control cell layers were cocultured for 2 hrs in the absence of HMO and were considered to have 0% cell rescue.
FIG. 3 Protection of the HT-29 monolayer by individual HMO. Cell rescue in co-culture treated with physiologically relevant concentrations of individual HMO (A). Symbols represent structures of individual HMO. Cell survival in the presence of equimolar concentrations of LNT, LNFP1 and a mixture of LNFP1, LNFP2, and LNFP3. […] Cytotoxicity assay with 10 mM 2′FL before and after fucosidase digestion (C). 2′FL left untreated or incubated with alpha1, 2 fucosidase was used in cytotoxicity assay. As controls, we used enzyme reaction buffer with inactivated fucosidase (control); equimolar concentrations (10 mM) of Lac, Fuc, or Fuc and Lac combined. Data from cytotoxicity assays are presented as % cell rescue compared to untreated cocultures (0%). Error bars are SEM, stars indicate statistical significance compared to control unless indicated by bars.
FIG. 4 GOS reduces cytotoxicity of trophozoites independent of its lactose content. Cell rescue in cocultures treated with increasing concentrations of GOS (triangles) or its corresponding lactose content (circles)(A). Cytotoxicity assay with GOS fractions (B). Higher numbered (eluted later) fractions contain lower molecular weight carbohydrates. The lactose content of fractions 11 and 12 is indicated above the respective bars. HPLC chromatogram of the original GOS preparation (20% lactose) (upper panel) and of the lactose free GOS (<0.5%) (C). Cytotoxicity assay with increasing concentrations of lactose-free GOS (triangles) and Lac-containing GOS (circles)(D).
HMO prevent enterocyte cytotoxicity by E. histolytica in in vitro cocultures. Previous studies have shown reduced Entamoeba attachment and cytotoxicity in the presence of selected carbohydrates (Cano-Mancera and Lopez-Revilla, 1987; Ravdin and Guerrant, 1981; Bracha and Mirelman, 1984). We tested the effect of HMO on Entamoeba induced cytotoxicity in in vitro cocultures with HT-29 cell layers and calculated the % cell rescue (FIG. 2A). […] The cell protective effect of 20 mg/ml HMO is similar to the effect of 10 mM lactose and better than the effect of 10 mM galactose (FIG. 2C). […] Treatment with 20 mg/ml after 90 min of cocultures could still rescue 31±4.7% of the cell layer.

Row | Molecule | protection of the cell layer (in words) | prevention of cytotoxicity (in words) (10 mM) | other results
1 | 3-sialyl-lactose [3′SL] | failed to prevent monolayer destruction | – | –
2 | CC(=O)N[C@H]1[C@H]([C@H](O)[C@H](O)CO)O[C@@](OC[C@H]2O[C@@H](O[C@H]3[C@H](O)[C@@H](O)C(O)O[C@@H]3CO)[C@H](O)[C@@H](O)[C@H]2O)(C(=O)O)C[C@@H]1O (stereo partly drawn) [6′SL, 6-sialyl-lactose] | failed to prevent monolayer destruction | – | –
3 | CC(=O)N[C@H]1[C@H](O[C@H]2[C@@H](O)[C@@H](CO)O[C@@H](O[C@H]3[C@H](O)[C@@H](O)C(O)O[C@@H]3CO)[C@@H]2O)O[C@H](CO)[C@@H](O)[C@@H]1O[C@@H]1O[C@H](CO)[C@H](O)[C@H](O)[C@H]1O[C@@H]1O[C@@H](C)[C@@H](O)[C@@H](O)[C@@H]1O (stereo partly drawn) [LNFP1] | – | – | rescue of enterocytes (in words) (5 mg/ml): no effect; cell rescue (10 mM): 16.9±1.7%
4 | CC(=O)N[C@H]1[C@H](O[C@H]2[C@@H](O)[C@@H](CO)O[C@@H](O[C@H]3[C@H](O)[C@@H](O)C(O)O[C@@H]3CO)[C@@H]2O)O[C@H](CO)[C@@H](O)[C@@H]1O[C@@H]1O[C@H](CO)[C@H](O)[C@H](O)[C@H]1O (stereo partly drawn) [LNT, Lacto-N-tetraose] | significantly protected the cell layer | – | cell rescue (5 mg/ml): 49.5±9.2%; cell rescue (10 mM): 79±8.3%
5 | OC[C@H]1O[C@@H](O[C@H]2[C@H](O)[C@@H](O)C(O)O[C@@H]2CO)[C@H](O)[C@@H](O)[C@H]1O (stereo partly drawn) [Lactose, lactose] | – | significantly prevent cytotoxicity | effect on cytotoxicity compared with lactose containing GOS (in words) (Lac concentrations present in each GOS sample): significantly lower
6 | C[C@H](O)[C@@H](O)[C@@H](O)[C@H](O)C=O [fucose] | – | no significant effect | prevention of cytotoxicity (in words) (10 mM, listed as Fucose): do not prevent cytotoxicity
7 | O=C[C@H](O)[C@@H](O)[C@@H](O)[C@H](O)CO [galactose] | – | no significant effect | –
